According to ChEMBL document CHEMBL1201862, “PubChem BioAssay data set” (2004):
Calls of active or inactive are those of the source.

What was measured:
CAAX prenyl protease 1 = CAAX prenyl protease 1 (Saccharomyces cerevisiae S288c, UniProt P47154); assay: yeast CAAX protease Ste24 inhibition – biochemical, S. cerevisiae, plate reader, cherry-pick, dose response (AID 488815)
CAAX prenyl protease 2 [1] = molecular target: CAAX prenyl protease 2 (Homo sapiens, UniProt Q9Y256); assay: inhibition of Ras-converting CAAX protease Rce1 – biochemical, yeast membranes, quenched-peptide fluorescence, cherry-pick, dose response (AID 588849)
Sequence of CAAX prenyl protease 2 (Homo sapiens, UniProt Q9Y256) (Q9Y256 whole entry): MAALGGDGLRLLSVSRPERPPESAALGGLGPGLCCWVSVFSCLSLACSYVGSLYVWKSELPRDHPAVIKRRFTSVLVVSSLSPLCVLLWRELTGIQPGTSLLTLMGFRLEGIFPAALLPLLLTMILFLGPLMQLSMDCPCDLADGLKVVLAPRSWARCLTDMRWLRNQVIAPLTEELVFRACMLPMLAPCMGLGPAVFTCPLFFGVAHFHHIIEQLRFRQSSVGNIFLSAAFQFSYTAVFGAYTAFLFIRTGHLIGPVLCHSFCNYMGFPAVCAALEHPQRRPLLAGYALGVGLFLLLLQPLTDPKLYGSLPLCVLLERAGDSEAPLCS

Trypsin = Trypsin (Sus scrofa, UniProt P00761); assay: trypsin protease activity blockade – biochemical, quenched peptide fluorescence, cherry-pick, selectivity assay for Rce1 protease inhibitor project, dose response (AID 488789)
CAAX prenyl protease 2 [2] = molecular target: CAAX prenyl protease 2 (Saccharomyces cerevisiae S288c, UniProt Q03530); assay type: biochemical
[3] = molecular target: T1, Intestinal-type alkaline phosphatase (Homo sapiens, UniProt P09923); assay: human intestinal alkaline phosphatase activators, dose response, biochemical, luminescence, uHTS hits (AID 463120); assay type: functional
T1 sequence (P09923 whole entry): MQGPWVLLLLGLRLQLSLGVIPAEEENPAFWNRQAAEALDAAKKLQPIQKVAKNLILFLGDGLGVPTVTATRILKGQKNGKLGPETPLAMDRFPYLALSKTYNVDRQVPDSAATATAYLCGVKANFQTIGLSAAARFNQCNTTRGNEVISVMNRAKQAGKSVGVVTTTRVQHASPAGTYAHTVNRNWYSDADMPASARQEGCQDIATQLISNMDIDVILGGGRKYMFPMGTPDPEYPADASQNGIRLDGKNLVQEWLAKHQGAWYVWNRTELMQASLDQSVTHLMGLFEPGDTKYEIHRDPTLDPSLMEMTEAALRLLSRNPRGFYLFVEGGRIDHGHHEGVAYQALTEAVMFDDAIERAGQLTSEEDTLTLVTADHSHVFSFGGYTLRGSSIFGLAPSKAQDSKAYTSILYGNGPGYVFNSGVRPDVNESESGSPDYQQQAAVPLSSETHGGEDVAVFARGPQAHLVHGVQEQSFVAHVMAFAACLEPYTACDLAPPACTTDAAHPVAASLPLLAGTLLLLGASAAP

[4] = molecular target: Intestinal-type alkaline phosphatase (Mus musculus, UniProt P24822); assay: PubChem AID 488875; assay type: functional
Sequence of Intestinal-type alkaline phosphatase (Mus musculus, UniProt P24822) (P24822 whole entry): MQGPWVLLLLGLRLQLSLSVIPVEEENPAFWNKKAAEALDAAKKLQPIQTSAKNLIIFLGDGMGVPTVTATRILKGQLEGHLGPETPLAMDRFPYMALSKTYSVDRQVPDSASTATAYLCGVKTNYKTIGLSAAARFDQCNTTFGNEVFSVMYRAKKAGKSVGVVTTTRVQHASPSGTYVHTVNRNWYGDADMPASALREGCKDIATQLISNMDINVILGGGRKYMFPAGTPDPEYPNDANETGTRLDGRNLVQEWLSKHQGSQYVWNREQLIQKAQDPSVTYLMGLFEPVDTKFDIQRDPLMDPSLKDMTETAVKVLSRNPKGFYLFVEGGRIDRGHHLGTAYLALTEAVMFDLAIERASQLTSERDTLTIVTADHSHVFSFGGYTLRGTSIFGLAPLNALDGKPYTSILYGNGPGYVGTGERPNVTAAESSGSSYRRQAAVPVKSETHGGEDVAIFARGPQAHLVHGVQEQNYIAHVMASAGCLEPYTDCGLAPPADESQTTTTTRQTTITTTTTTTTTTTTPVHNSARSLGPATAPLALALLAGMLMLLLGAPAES

[5] = molecular target: T2, Alkaline phosphatase, tissue-nonspecific isozyme (Homo sapiens, UniProt P05186); assay: activation of tissue-nonspecific alkaline phosphatase – biochemical, TNAP isozyme, human IAP uHTS hits, selectivity assay for human IAP activator project, dose response (AID 488886); assay type: functional;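 further: potency of compounds raising TNAP activity as a selectivity check on IAP activators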
T2 sequence (P05186 whole entry): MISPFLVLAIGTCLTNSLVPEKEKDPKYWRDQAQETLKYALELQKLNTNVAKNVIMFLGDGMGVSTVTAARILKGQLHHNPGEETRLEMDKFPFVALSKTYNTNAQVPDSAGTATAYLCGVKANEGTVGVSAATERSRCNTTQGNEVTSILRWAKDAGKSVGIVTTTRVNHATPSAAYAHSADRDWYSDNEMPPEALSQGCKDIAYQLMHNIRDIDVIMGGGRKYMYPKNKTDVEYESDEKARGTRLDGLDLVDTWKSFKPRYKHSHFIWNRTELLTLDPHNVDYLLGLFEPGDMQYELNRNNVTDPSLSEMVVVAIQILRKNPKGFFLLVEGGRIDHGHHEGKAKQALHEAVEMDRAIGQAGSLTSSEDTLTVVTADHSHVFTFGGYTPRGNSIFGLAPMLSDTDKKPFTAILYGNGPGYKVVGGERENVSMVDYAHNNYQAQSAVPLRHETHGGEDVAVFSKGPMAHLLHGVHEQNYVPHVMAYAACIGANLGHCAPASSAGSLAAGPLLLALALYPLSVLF

[6] = molecular target: T1, Intestinal-type alkaline phosphatase; assay: activation of human intestinal alkaline phosphatase – biochemical, luminescent, uHTS hits, set 2, dose response (AID 488817); assay type: functional;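 further: potency of activators that raise enzyme activity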
[7] = molecular target: T3, Lysine-specific demethylase 4C (Homo sapiens, UniProt Q9H3R0); assay: inhibition of JMJD2C H3K9me3 demethylation – biochemical, DELFIA europium, cherry-picked samples, dose response (AID 488835); assay type: functional
T3 sequence (Q9H3R0 whole entry): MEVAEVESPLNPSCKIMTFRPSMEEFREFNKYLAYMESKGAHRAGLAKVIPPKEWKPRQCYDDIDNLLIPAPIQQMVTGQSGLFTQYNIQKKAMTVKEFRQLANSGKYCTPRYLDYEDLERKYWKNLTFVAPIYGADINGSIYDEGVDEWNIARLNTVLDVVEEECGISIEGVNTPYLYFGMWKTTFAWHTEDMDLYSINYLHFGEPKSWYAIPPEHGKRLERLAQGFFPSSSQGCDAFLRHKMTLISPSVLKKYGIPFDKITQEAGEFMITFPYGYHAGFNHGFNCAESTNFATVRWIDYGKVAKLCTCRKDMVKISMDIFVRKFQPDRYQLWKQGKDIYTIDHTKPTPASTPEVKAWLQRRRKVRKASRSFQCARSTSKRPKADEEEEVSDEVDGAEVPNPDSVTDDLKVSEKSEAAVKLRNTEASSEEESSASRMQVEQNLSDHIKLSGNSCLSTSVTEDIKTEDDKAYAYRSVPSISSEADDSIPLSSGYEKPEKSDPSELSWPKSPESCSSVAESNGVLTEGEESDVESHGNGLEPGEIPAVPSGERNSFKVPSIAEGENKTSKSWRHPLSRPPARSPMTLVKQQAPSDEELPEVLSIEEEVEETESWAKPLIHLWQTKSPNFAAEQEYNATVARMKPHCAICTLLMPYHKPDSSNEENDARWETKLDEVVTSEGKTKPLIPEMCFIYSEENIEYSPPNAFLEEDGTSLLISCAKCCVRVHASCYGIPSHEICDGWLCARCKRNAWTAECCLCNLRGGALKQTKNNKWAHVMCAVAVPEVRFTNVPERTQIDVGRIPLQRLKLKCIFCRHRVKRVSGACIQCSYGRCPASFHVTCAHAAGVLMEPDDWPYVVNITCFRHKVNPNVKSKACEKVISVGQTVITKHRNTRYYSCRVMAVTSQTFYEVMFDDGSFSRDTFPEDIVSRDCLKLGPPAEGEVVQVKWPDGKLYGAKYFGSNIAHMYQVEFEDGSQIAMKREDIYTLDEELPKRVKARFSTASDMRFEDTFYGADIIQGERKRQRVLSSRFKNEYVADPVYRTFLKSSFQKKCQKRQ

[8] = molecular target: RNA-editing ligase 1, mitochondrial (Trypanosoma brucei brucei, UniProt P86926); assay: inhibition of trypanosome RNA editing ligase – biochemical, fluorescence, Trypanosoma brucei, dose response (AID 1117295); assay type: functional
NS3 = NS3 (Hepatitis C virus, UniProt A3EZJ3); assay: PubChem AID 2173; set-up: species or system Hepacivirus hominis
Sequence of NS3 (A3EZJ3 whole entry): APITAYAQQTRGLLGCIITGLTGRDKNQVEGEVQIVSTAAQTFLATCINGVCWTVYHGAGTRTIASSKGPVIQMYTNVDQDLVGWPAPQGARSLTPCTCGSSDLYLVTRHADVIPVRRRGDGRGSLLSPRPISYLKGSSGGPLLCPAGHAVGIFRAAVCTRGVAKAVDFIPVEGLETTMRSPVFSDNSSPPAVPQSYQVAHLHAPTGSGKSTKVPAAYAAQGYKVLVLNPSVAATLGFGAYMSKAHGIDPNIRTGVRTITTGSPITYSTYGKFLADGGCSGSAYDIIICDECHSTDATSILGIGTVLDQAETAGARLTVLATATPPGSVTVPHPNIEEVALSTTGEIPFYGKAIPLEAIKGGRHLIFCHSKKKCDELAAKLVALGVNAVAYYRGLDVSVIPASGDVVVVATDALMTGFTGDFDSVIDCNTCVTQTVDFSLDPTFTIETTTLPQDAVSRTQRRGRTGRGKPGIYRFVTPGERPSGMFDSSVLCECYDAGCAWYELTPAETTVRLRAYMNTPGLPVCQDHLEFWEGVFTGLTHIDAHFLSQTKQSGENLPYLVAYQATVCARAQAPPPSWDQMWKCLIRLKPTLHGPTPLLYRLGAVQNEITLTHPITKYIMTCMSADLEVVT

[9] = test system: Streptococcus sp. 'group A'; assay: Streptococcus pyogenes SK(-)GAS viability under kanamycin – luminescence, BacTiterGlo, confirmation, counter-screen for streptokinase expression inhibitor project, dose response (AID 1900); assay type: functional, organism-based
[10] = NIH-3T3 fibroblast cytotoxicity, dose response, cytotoxicity control, cell-based, fluorescence, Alamar Blue, secondary assay (AID 2327); assay type: functional;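 further: NIH-3T3 mouse fibroblasts cultured with fluconazole at 8 µg/mL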
[11] = molecular target: 1-phosphatidylinositol 4,5-bisphosphate phosphodiesterase beta-3 (Homo sapiens, UniProt Q01970); assay: Fluorescence-based biochemical high throughput dose response assay to identify inhibitors of phospholipase C isozymes (PLC-B3).
Caspase-8 = Caspase-8 (Homo sapiens, UniProt Q14790); assay: inhibitors of purified CASP8 protease – biochemical, Z-IETD-R110 fluorescence, cherry-picked samples, selectivity assay for caspase-6 inhibitor project, dose response (AID 743294)
Streptokinase A = molecular target: T4, Streptokinase A (Streptococcus pyogenes serotype M1, UniProt P10520); assay: viability-normalized secreted streptokinase activity reduction – plasminogen activation absorbance, OD405, dose response (AID 1914); assay type: functional, Streptococcus pyogenes M1 GAS;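 further: secreted streptokinase activity via plasminogen activation per viability signal from cell pellet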
T4 sequence (P10520 whole entry): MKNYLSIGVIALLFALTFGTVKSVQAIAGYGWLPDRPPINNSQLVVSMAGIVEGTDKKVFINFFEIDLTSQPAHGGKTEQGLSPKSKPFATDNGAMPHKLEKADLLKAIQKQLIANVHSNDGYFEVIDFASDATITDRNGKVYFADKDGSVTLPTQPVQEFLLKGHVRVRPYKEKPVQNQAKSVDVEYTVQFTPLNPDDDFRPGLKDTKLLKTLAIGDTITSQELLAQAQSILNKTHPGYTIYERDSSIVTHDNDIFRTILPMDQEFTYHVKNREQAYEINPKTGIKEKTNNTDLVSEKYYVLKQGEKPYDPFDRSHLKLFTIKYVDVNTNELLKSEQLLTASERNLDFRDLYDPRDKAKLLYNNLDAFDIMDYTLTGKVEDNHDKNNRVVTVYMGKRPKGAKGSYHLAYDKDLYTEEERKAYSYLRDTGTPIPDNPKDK

Large T antigen = Large T antigen (Simian virus 40, UniProt P03070); assay type: functional, Betapolyomavirus macacae;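 further: Confirmatory-stage PubChem screen for compounds that inhibit SV40 T antigen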
[12] = molecular target: Heat shock protein HSP 90-alpha (Homo sapiens, UniProt P07900); assay type: functional, organism-based
[13] = molecular target: Matrix metalloproteinase-14 (Homo sapiens, UniProt P50281); assay: Dose Response confirmation of uHTS hits for a small molecule inhibitors of MT1-MMP activation in a fluorescence assay set 2.; assay type: functional
[14] = fluconazole-exposed Candida albicans growth modulators – fluorescence, retest, confirmation (AID 2467); assay type: functional, cell-based
Streptococcus = assay: GAS UMAA2166 growth inhibition – luminescence, BacTiterGlo, counter-screen for streptokinase expression inhibitor project, dose response (AID 1915); assay type: functional, organism-based;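 further: potency for reduction of bacterial viability or growth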
Caspase-9 = Caspase-9 (Homo sapiens, UniProt P55211); assay: inhibitors of purified CASP9 protease – biochemical, fluorescence, plate reader, cherry-picked samples, selectivity assay for caspase-6 inhibitor project, dose response (AID 743293)
Sequence of Caspase-9 (P55211 1-315 limits assumed): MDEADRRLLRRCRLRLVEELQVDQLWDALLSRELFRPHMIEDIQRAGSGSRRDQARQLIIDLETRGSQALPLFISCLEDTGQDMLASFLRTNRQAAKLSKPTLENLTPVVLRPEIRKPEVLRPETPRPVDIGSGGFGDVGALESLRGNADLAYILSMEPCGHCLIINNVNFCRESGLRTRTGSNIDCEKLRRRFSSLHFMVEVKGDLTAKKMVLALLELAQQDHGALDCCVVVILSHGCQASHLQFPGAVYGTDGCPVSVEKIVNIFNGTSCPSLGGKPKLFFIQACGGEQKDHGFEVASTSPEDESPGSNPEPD
Sequence of Caspase-9 (P55211 331-416 limits assumed): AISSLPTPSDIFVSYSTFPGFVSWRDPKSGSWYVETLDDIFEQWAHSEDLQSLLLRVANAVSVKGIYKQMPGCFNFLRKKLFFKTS

Caspase-6 = molecular target: T5, Caspase-6 (Homo sapiens, UniProt P55212); assay: inhibition of CASP6 peptide cleavage – biochemical, VEID-R110 fluorescence, cherry-pick, dose response (AID 720632)
T5 sequence (P55212 whole entry): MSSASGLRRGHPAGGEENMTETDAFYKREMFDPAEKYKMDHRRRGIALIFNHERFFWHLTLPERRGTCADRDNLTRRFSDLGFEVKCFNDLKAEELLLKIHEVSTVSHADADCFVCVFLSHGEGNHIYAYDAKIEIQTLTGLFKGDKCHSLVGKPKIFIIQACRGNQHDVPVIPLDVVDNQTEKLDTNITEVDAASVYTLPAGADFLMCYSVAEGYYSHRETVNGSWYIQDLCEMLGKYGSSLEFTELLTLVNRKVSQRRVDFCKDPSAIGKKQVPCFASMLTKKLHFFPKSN

[15] = molecular target: 1-phosphatidylinositol 4,5-bisphosphate phosphodiesterase gamma-1 (Homo sapiens, UniProt P19174); assay: Counterscreen for inhibitors of phospholipase C isozymes (PLC-B3): Fluorescence-based biochemical high throughput dose response assay to identify inhibitors of phospholipase C isozymes (PLC-gamma1).
Sequence of 1-phosphatidylinositol 4,5-bisphosphate phosphodiesterase gamma-1 (P19174 whole entry): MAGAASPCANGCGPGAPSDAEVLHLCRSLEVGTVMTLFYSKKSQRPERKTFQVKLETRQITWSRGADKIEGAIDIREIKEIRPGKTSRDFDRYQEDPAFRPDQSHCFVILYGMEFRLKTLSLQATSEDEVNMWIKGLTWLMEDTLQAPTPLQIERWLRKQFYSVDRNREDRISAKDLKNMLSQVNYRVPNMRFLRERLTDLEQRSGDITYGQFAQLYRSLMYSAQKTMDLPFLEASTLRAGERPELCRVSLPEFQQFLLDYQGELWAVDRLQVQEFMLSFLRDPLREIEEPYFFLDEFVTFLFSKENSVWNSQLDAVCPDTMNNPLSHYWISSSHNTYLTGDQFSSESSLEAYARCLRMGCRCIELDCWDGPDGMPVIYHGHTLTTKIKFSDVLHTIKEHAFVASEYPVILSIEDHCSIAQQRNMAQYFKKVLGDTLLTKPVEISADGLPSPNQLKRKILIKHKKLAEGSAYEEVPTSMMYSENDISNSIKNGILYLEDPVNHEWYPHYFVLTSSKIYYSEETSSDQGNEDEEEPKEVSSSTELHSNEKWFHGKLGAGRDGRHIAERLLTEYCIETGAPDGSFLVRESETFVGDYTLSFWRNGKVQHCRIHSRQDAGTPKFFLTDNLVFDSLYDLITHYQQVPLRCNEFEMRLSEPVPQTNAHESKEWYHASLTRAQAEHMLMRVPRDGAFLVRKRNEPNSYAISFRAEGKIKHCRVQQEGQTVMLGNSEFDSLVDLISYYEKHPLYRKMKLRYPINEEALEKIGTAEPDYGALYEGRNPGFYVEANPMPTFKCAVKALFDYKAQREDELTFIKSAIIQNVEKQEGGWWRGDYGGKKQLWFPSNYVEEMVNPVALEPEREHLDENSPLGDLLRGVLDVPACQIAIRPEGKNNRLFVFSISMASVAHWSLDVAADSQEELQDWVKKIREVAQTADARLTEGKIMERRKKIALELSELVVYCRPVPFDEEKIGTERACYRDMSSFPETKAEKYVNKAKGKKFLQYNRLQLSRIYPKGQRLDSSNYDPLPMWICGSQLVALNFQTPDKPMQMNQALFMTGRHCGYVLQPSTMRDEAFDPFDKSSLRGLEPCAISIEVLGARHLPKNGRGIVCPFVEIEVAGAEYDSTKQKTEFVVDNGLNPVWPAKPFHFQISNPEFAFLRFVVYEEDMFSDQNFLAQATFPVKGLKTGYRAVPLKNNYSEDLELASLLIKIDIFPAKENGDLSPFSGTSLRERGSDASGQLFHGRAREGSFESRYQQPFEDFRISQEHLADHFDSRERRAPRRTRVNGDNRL

[16] = molecular target: Lysine-specific demethylase 4A (Homo sapiens, UniProt O75164); assay: inhibition of JMJD2A H3K9me3 demethylation – biochemical, DELFIA europium, cherry-picked samples, selectivity assay for GASC-1 inhibitor project, dose response (AID 488840)
Sequence of Lysine-specific demethylase 4A (O75164 whole entry): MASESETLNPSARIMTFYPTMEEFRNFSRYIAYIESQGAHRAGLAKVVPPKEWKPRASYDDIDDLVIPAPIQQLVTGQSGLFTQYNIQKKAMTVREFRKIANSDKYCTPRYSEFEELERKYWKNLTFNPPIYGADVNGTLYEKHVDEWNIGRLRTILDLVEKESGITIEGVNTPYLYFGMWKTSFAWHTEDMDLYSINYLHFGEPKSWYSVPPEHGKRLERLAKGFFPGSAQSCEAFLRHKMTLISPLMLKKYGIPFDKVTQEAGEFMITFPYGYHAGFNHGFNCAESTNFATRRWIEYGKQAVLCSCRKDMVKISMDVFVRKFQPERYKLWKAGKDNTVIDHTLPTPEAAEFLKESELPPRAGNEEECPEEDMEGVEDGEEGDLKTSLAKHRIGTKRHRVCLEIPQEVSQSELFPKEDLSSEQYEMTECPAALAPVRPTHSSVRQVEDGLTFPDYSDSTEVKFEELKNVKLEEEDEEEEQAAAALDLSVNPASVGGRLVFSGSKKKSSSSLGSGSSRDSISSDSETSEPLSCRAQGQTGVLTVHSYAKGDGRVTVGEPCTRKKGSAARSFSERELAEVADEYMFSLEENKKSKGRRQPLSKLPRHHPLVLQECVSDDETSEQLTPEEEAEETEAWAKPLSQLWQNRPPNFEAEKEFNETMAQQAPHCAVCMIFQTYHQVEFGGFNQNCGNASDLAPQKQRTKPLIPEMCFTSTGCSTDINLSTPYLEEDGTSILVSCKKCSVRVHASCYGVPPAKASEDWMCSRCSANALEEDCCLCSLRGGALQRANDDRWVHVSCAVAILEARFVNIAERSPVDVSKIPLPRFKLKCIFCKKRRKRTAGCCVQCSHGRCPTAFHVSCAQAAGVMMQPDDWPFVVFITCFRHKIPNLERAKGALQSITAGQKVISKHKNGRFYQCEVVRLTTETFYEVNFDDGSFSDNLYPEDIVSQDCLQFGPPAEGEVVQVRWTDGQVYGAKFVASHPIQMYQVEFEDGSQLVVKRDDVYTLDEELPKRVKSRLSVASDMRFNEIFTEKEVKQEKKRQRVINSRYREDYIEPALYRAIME

Caspase-3 = molecular target: T6, Caspase-3 (Homo sapiens, UniProt P42574); assay: human caspase-3 protease activity blockade – biochemical, fluorescence, cherry-picked samples, selectivity assay for caspase-6 allosteric inhibitor project, dose response (AID 743291)
T6 sequence (P42574 whole entry): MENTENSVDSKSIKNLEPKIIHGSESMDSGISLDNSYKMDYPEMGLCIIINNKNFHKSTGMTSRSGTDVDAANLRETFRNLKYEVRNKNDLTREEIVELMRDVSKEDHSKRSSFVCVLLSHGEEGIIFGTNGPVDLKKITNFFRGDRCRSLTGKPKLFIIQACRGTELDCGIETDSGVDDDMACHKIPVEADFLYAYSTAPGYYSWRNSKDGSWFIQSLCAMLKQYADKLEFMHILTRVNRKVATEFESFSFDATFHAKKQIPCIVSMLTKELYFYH

Troponin, cardiac muscle = Troponin, cardiac muscle (Homo sapiens, UniProt P19429+P45379+P63316); assay: compounds desensitizing RTF to calcium – biochemical, fluorescence, cardiac regulated thin filaments, triplicate IC50, dose response (AID 504742); assay type: protein-complex assay
Caspase-7 = Caspase-7 (Homo sapiens, UniProt P55210); assay: caspase-7 enzyme inhibition, selectivity check – biochemical, DEVD-R110 fluorescence, cherry-pick, selectivity assay for caspase-6 inhibitor project, dose response (AID 743295); assay type: functional
Vero = assay: viability of Vero cells under compound – cytotoxicity control for flavivirus capping enzyme inhibitors (AID 588742); assay type: functional; details: Chlorocebus sabaeus
Phosphomannomutase 2 = Phosphomannomutase 2 (Homo sapiens, UniProt O15305); assay: Counter screen SAR assay for PMM2 inhibitors via a fluorescence intensity assay. [Related pubchem assays (depositor defined):AID1545, AID1574]
[17] = molecular target: T7, Mannose-6-phosphate isomerase (Homo sapiens, UniProt P34949); assay: phosphomannose isomerase inhibition – biochemical, fluorescence intensity, confirmation (AID 1535)
T7 sequence (P34949 whole entry): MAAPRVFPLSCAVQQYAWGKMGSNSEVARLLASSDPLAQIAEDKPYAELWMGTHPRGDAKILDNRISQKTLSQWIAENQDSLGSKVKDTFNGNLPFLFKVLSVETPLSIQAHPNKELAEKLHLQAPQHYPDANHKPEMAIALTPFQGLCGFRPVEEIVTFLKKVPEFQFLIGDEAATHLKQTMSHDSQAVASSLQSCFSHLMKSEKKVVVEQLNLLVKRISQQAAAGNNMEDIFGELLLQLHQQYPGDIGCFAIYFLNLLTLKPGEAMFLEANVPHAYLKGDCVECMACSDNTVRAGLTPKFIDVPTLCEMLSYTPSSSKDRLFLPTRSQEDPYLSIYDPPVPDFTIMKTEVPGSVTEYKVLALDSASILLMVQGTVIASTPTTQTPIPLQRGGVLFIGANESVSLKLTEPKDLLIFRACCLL

Nc1nc(N2CCN(C(=O)c3ccco3)CC2)nc2ccccc12
active: AC50 (CAAX prenyl protease 1) 3.46 µM | AC50 (CAAX prenyl protease 2 [1]) 8.22 µM | AC50 (Trypsin) 15.3 µM | AC50 (CAAX prenyl protease 2 [2]) 28.7 µM

COc1ccccc1CNC(=O)CN(c1ccc(C)cc1)S(=O)(=O)c1c(C)noc1C
active: EC50 [3] 86 µM | EC50 [4] 67.5 µM | EC50 [5] 76.2 µM | EC50 [6] 99 µM

O=c1cc2oc3cc(O)c(O)cc3c(-c3ccccc3[N+](=O)[O-])c-2cc1O
active: AC50 [7] 1.97 µM | IC50 (NS3) 0.99 µM | EC50 [9] 7.94 µM | EC50 [10] 8.25 µM | AC50 (Caspase-8) 41.3 µM | EC50 (Streptokinase A) 11.2 µM | IC50 (Large T antigen) 5.91 µM | AC50 [12] 2.9 µM | IC50 [13] 17.9 µM | EC50 [14] 1.07 µM | EC50 (Streptococcus) 10.2 µM | AC50 (Caspase-6) 0.018 µM | AC50 [16] 2.01 µM | AC50 (Caspase-3) 0.122 µM | IC50 (Troponin, cardiac muscle) 1.64 µM | AC50 (Caspase-7) 1.33 µM | CC50 (Vero) 12.2 µM
inactive: IC50 [8] > 96.6 µM | IC50 [11] > 123 µM | AC50 (Caspase-9) > 70 µM | IC50 [15] 67.5 µM

COc1ccc(/N=c2\ssnc2Cl)cc1OC
active: IC50 [17] 36.7 µM
inactive: IC50 (Phosphomannomutase 2) > 100 µM
